Reference: patent publication US10087229B2, “Peptide compound” (TAKEDA PHARMACEUTICAL COMPANY LIMITED, priority 2013, dated 2018)
Square brackets hold non-standard residues; d marks the D form. Peptide text beside a SMILES is read from it. NMeY = CN[C@@H](Cc1ccc(O)cc1)C(=O)O; αMeF = C[C@](N)(Cc1ccccc1)C(=O)O; Aib = CC(C)(N)C(=O)O

Tests used:
human glucagon R = molecular target: T1, human glucagon R (Homo sapiens, UniProt P47871); test: Reporter assay of human glucagon R agonist activity, rise in intracellular cAMP as index (hGlucagonR/CRE-LUC/CHO-K1 cells); format: cell-based; conditions: luciferase reporter; 10 nM glucagon = 100%, DMSO = 0%; 4 hours incubation; read-out: Agonist activity (EC50) hGCGR
T1 construct: expressed in transfected cells; host or cells: CHO-K1 (CRE-LUC/CHO-K1 reporter cells)
Description: Evaluation of agonist activity against human GIPR, human GLP-1R and human glucagon R using rise in intracellular cAMP concentration as index
(2) Construction of Reporter Plasmid-Expressing Cell
The luciferase reporter gene having an upstream cAMP response sequence was introduced to CHO-K1 cells to construct CRE-LUC/CHO-K1 cells.
(7) Construction of Expression Plasmid for the Human Glucagon R Gene
The human glucagon R gene having a sequence identical to the sequence of GenBank Accession No. NM_000160 was cloned into pMSRα-neo vector to prepare hGlucagonR/pMSRα-neo.
(8) Introduction of the Human Glucagon R Gene into CRE-LUC/CHO-K1 Cell and Obtainment of Expressing Cell […]
The hGIPR/CRE-LUC/CHO-K1 cells were inoculated at a cell density of 25 μL/well (5×10^4 cells/well) to a 384-well white plate (Corning), and cultured overnight in Ham F12 medium containing 10% fetal bovine serum, 100 U/mL penicillin and 100 μg/mL streptomycin in a CO2 incubator of 37° C. […] After 30 minutes, the luciferase activity was measured using a plate reader Envision (PerkinElmer). […] The GIPR agonist activity was calculated with a rise in intracellular cAMP concentration as an index.
The glucagon R agonist activity was assayed in the same way as above using the hGlucagonR/CRE-LUC/CHO-K1 cells. […] The glucagon agonist activity was calculated with a rise in intracellular cAMP concentration as an index.

male C57BL/6J mouse = test: 2-days continuous subcutaneous administration test (feeding suppressive activity); format: in vivo; conditions: 10 nmol/kg/day, subcutaneous Alzet pump, 2-days cumulative food consumption, control (solvent alone) = 0%
Outline: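 Male C57BL/6J mice, 8-9 weeks, given test compound at 10 nmol/kg/day by subcutaneously implanted osmotic pump (50% DMSO vehicle), housed singly with free food access. Cumulative 2-day food consumption measured; suppression rate (%) calculated relative to vehicle-only controls.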

[1] = test system: Diet-induced obesity (DIO) male C57BL/6J mice; test: 2-weeks continuous subcutaneous administration study in DIO mice (anti-obesity activity); format: in vivo, mouse; conditions: 1 nmol/kg/day, subcutaneous Alzet pump, 2 weeks after start of administration; rate of weight loss, control group regarded as 0%
Procedure: 2-Weeks Continuous Subcutaneous Administration Study in DIO Mice
The anti-obesity activity of a test compound was examined by the method described below.
Diet-induced obesity (DIO) mice were prepared by feeding male C57BL/6J mice with high-fat diet (D12451: Research Diets, Inc.). The test compound was dissolved in a solvent (50% DMSO) so that sustained release would occur at 1 nmol/kg/day, and the solution was filled in the Alzet Pump (DURECT Corporation, model: 1002). The pump thus filled with the solution to be administered was immersed in physiological saline for priming, and then used. The pump was embedded by the following method. Each male DIO-C57BL/6J mouse at 35-37 weeks of age (20-26° C., allowed to take food and water ad libitum; 12-hour bright-12-hour dark cycle) was anesthetized; the skin in the upper back thereof was incised, and the above-mentioned pump was embedded subcutaneously; the incision was sutured. After weighing, this mouse was returned to the rearing cage (reared alone), and given previously weighed food; the body weight was measured every 1 to 3 days after the start of administration. The anti-obesity activity of each test compound was evaluated on the basis of the rate of weight loss 2 weeks after the start of administration, with the rate of weight loss in a control group receiving administration of the solvent alone regarded as 0%.

T1 sequence (P47871 26-477): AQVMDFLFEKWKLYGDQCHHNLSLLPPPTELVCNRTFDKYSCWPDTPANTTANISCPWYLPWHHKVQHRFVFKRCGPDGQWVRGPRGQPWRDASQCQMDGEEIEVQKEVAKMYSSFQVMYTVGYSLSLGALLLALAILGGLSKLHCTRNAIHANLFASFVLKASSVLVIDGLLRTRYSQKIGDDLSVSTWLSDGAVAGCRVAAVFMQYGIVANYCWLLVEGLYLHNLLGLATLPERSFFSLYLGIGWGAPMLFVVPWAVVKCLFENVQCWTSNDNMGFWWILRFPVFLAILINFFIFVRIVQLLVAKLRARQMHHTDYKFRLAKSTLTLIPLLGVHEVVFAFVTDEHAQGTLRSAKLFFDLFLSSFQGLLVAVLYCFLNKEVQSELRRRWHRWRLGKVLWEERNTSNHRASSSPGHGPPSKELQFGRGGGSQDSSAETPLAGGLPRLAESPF

Row | SMILES | EC50 (human glucagon R) [nM] | Food intake suppression (%) (male C57BL/6J mouse) | Change in body weight [1]
1 | CC[C@H](C)[C@H](NC(=O)C(C)(C)NC(=O)[C@H](Cc1ccc(O)cc1)NC(=O)[C@H](CC(=O)O)NC(=O)[C@H](CO)NC(=O)[C@@H](NC(=O)[C@](C)(Cc1ccccc1)NC(=O)[C@@H](NC(=O)CNC(=O)[C@H](CCC(=O)O)NC(=O)C(C)(C)NC(=O)[C@H](Cc1ccc(O)cc1)NC)[C@@H](C)O)[C@@H](C)O)C(=O)NC(C)(C)C(=O)N[C@@H](CC(C)C)C(=O)N[C@@H](CC(=O)O)C(=O)N[C@@H](CCCCN)C(=O)N[C@@H](CCC(N)=O)C(=O)N[C@@H](C)C(=O)N[C@@H](CCC(N)=O)C(=O)N[C@@H](C)C(=O)N[C@@H](CCC(=O)O)C(=O)N[C@@H](Cc1ccccc1)C(=O)N[C@H](C(=O)N[C@@H](CCCCN)C(=O)N[C@@H](Cc1c[nH]c2ccccc12)C(=O)N[C@@H](CC(C)C)C(=O)N[C@@H](CC(C)C)C(=O)N[C@@H](CCCCN)C(=O)NCC(=O)NCC(=O)N1CCC[C@H]1C(=O)N[C@@H](CO)C(=O)N[C@@H](CO)C(=O)NCC(=O)N[C@@H](C)C(=O)N1CCC[C@H]1C(=O)N1CCC[C@H]1C(=O)N1CCC[C@H]1C(=O)N[C@@H](CO)C(=O)N[C@@H](CCCCN)C(N)=O)C(C)C [Example 23] (H-[NMeY][Aib]EGT[αMeF]TSDY[Aib]I[Aib]LDKQAQAEFVKWLLKGGPSSGAPPPSK-NH2) | > 1000 | 52.62 | –
2 | CC(C)C[C@H](NC(=O)[C@H](CC(C)C)NC(=O)[C@H](Cc1c[nH]c2ccccc12)NC(=O)[C@H](CCCCN)NC(=O)[C@@H](NC(=O)[C@H](Cc1ccccc1)NC(=O)[C@H](CCC(=O)O)NC(=O)[C@H](C)NC(=O)[C@H](CCC(N)=O)NC(=O)[C@H](C)NC(=O)[C@H](CCC(N)=O)NC(=O)[C@H](CCCCN)NC(=O)[C@H](CC(=O)O)NC(=O)[C@H](CC(C)C)NC(=O)[C@H](Cc1ccc(O)cc1)NC(=O)[C@H](CCCCN)NC(=O)C(C)(C)NC(=O)[C@H](Cc1ccc(O)cc1)NC(=O)[C@H](CC(=O)O)NC(=O)[C@H](CO)NC(=O)[C@@H](NC(=O)[C@](C)(Cc1ccccc1)NC(=O)[C@@H](NC(=O)CNC(=O)[C@H](CCC(=O)O)NC(=O)C(C)(C)NC(=O)[C@@H](N)Cc1ccc(O)cc1)[C@@H](C)O)[C@@H](C)O)C(C)C)C(=O)N[C@@H](CCCCN)C(=O)NCC(=O)NCC(=O)N1CCC[C@H]1C(=O)N[C@@H](CO)C(=O)N[C@@H](CO)C(=O)NCC(=O)N[C@@H](C)C(=O)N1CCC[C@H]1C(=O)N1CCC[C@H]1C(=O)N1CCC[C@H]1C(=O)N[C@@H](CO)C(=O)N[C@@H](CCCCN)C(N)=O [Example 24] (H-Y[Aib]EGT[αMeF]TSDY[Aib]KYLDKQAQAEFVKWLLKGGPSSGAPPPSK-NH2) | – | 54.18 | −11.1
